# Experiments:
# A549 cells = test: Apoptosis, Annexin V-FITC/7-AAD flow cytometry, A549; format: cell-based, human; conditions: A549, IC50 concentration, 72 h
# Experimental: (§1) To establish in vitro, the anti-proliferative mechanism of activity, the influence of bis(2-aminoethyl)amine derivatives on early and late apoptosis was performed, using flow cytometry analysis (Figure 7).
# (§2) Description related to conducted biological studies including cell culture, suitable conditions, and methodology was presented in our previous paper.
# (§3) Figure 7 The effect of derivatives 3–6 on early and late apoptosis, or necrosis in HaCaT, CaCo-2, A549, and HTB-140 cells. Cells were incubated for 72 h with tested compounds and used in their IC50 concentrations. Then cells were harvested, stained with Annexin V-FITC and 7-AAD, and analyzed using flow cytometry. Data are expressed as the percentage of cells at an early stage of apoptosis or late stage of apoptosis or necrosis. Data are given as means ± SD, *** p ≤ 0.001, ** p ≤ 0.01, as compared to the control.
# Figure 8 The effect of compounds 3–6 on early and late apoptosis or necrosis in A549 cells, detected with Annexin V-FITC/7-AAD by flow cytometry. […] The upper right and upper left quadrants represent the late stage of apoptotic or necrotic cells (Annexin V-FITC positive, 7-AAD positive, Annexin V-FITC negative and 7-AAD positive staining, respectively). The lower left quadrant represents unstained A549 cells (Annexin V-FITC negative, 7-AAD negative). TEXT PRINTED IN THE PICTURE: 3: 0,1; 26,6; 36,9; 36,5 | 4: 0,1; 23,4; 47,2; 29,3 | 5: 0,2; 42,5; 28,4; 28,9 | 6: 0,2; 37,6; 19,5; 42,7 DOUBTS OF THE COPYIST ABOUT THIS PICTURE: 3, lower left quadrant value: 36,9, printed over the dot cloud, so the digits 6 and 9 are not fully certain / 6, lower left quadrant value: 19,5, partly printed over the dot cloud, so the digits 9 and 5 are not fully certain / The quadrant numbers are printed with no measure or unit. They are listed in the order upper left, upper right, lower left, lower right / The Control plot (0,1; 5,2; 87,4; 7,3) was left out because it is not a substance
# [1] = system: HaCaT cells (normal keratinocytes); test: Lactate dehydrogenase (LDH) release assay, HaCaT; format: cell-based, human; conditions: 72 h
# Experimental: (§4) Lactate dehydrogenase assay (LDH) as a marker of cell death was evaluated for synthesized ethylthioureas 1–7. The compounds were tested at concentrations of 10, 50, and 100 µM. At the lowest dose, no activity was observed.
# as §2
# (§5) Figure 6 LDH release as a marker of a cell death in the HaCaT, HTB-140, CaCo-2, A549 cells, treated for 72 h with various concentrations of derivatives 3–6 (100 µM for compounds 3–5, 100 and 50 µM for 6). Data are expressed as the mean ± SD from three independent experiments, performed in triplicate. *** p ≤ 0.001, ** p ≤ 0.01, as compared to the control.
# [2] = system: A549 cells (epithelial lung carcinoma); test: MTT cytotoxicity assay, A549; format: cell-based, human; conditions: for IC50: A549, MTT, mean ± SD; for SI (Selectivity Index): IC50 for normal cell line (HaCaT)/IC50 A549
# From the text: (§6) All derivatives of bis(2-aminoethyl)amine were screened for their in vitro cytotoxic activity against a panel of human cancer cell lines, namely colorectal adenocarcinoma (CaCo-2), epithelial lung carcinoma (A549), and melanoma (HTB-140), which is contrary to normal (HaCaT) cell lines, by using the MTT method.
# as §2
# [3] = system: HaCaT cells (immortal keratinocytes); test: MTT cytotoxicity assay, HaCaT normal cells; format: cell-based, human; conditions: mean ± SD
# From the text: as §6, §2
# HTB-140 cells (melanoma) = test: MTT cytotoxicity assay, HTB-140; format: cell-based, human; conditions: for IC50: HTB-140, MTT, mean ± SD; for SI (Selectivity Index): IC50 for normal cell line (HaCaT)/IC50 HTB-140
# From the text: as §6, §2
# [4] = system: panel of human cancer cell lines (CaCo-2, A549, HTB-140) and normal HaCaT cells; test: MTT cytotoxicity assay, statements over the whole cell panel; format: cell-based; conditions: for IC50: Homo sapiens, all cancer cell lines (CaCo-2, A549, HTB-140), read-out: IC50, range over cancer cell lines; for antiproliferative / cytotoxic activity in words: chosen cancer and normal cell lines
# From the text: as §6, §2
# [5] = system: interleukin-6 (IL-6) release, A549 cells; test: Interleukin-6 assay (ELISA), A549; format: cell-based, human; conditions: A549, IC50 dose
# From the text: (§7) The mechanism of cytotoxic action of bis(2-aminoethyl)-amine derivatives can be associated with reducing interleukin-6 (IL-6) levels, which include the strong pro-inflammatory particles.
# as §2
# (§8) Figure 9 Effects of compounds 3–6 on IL-6 levels, measured by the ELISA test. Data are expressed as the mean ± SD from three independent experiments, performed in triplicate. *** p ≤ 0.001, ** p ≤ 0.01, * p ≤ 0.05, as compared to the control.
# [6] = system: CaCo-2 cells (colorectal adenocarcinoma); test: MTT cytotoxicity assay, CaCo-2; format: cell-based, human; conditions: for IC50: Homo sapiens, CaCo-2, MTT, mean ± SD; for SI (Selectivity Index): IC50 for normal cell line (HaCaT)/IC50 CaCo-2
# From the text: as §6, §2
# CaCo-2 cells = test: Apoptosis, Annexin V-FITC/7-AAD flow cytometry, CaCo-2; format: cell-based, human; conditions: CaCo-2, IC50 concentration, 72 h
# Experimental: as §1, §2, §3
# [7] = system: interleukin-6 (IL-6) secretion, HTB-140 cells; test: Interleukin-6 assay (ELISA), HTB-140; format: cell-based, human; conditions: HTB-140, IC50 dose
# From the text: as §7, §2, §8
# [8] = system: HaCaT, HTB-140, CaCo-2, A549 cells; test: Lactate dehydrogenase (LDH) release assay, statements over several cell lines; format: cell-based, human; conditions: pathological cell lines (HTB-140, CaCo-2, A549), 50 µM, 72 h
# Experimental: as §4, §2, §5
# HTB-140 cells = test: Apoptosis, Annexin V-FITC/7-AAD flow cytometry, HTB-140; format: cell-based, human; conditions: HTB-140, IC50 concentration, 72 h
# Experimental: as §1, §2, §3
SMILES,late apoptosis (A549 cells),IC50 ([2]; Homo sapiens),SI (Selectivity Index) [2],IC50 ([3]; Homo sapiens),IC50 (HTB-140 cells (melanoma); Homo sapiens),SI (Selectivity Index) (HTB-140 cells (melanoma)),IC50 [6],SI (Selectivity Index) [6],antiproliferative / cytotoxic activity in words [4],further results
"S=C(NCCN(CCNC(=S)Nc1ccc(Cl)cc1)C(=S)Nc1ccc(Cl)cc1)Nc1ccc(Cl)cc1 [Compound 3, 3-(4-chlorophenyl)-1,1-bis{2-[3-(4-chlorophenyl)thioureido]ethyl}thiourea]",23.5%,25 ± 2.4 µM,1.19,29.9 ± 1.8 µM,22.6 ± 2 µM,1.32,27.7 ± 3.7 µM,1.08,,LDH release ([1]; 100 µM): 13.8%; IC50 [4]: 22.6 to 27.7 µM; decrease of the IL-6 concentration ([5]; versus control): 1.7 times
"S=C(NCCc1ccccc1)NCCN(CCNC(=S)NCCc1ccccc1)C(=S)NCCc1ccccc1 [Compound 6, 3-phenethyl-1,1-bis[2-(3-phenethylthioureido)ethyl]thiourea]",37.8%,15 ± 1.7 µM,1.08,16.1 ± 5.7 µM,14 ± 2.5 µM,1.16,15.7 ± 1.7 µM,1.02,,"early apoptosis (CaCo-2 cells): 55.7%; LDH release ([1]; 50 µM): 8.3%; LDH release ([1]; 100 µM): 17.9%; inhibition of IL-6 secretion, in words [7]: two-fold; LDH secretion [8]: 8.09–10.4%; IC50 [4]: 14 to 15.7 µM"
"S=C(NCCN(CCNC(=S)Nc1ccc(Br)cc1)C(=S)Nc1ccc(Br)cc1)Nc1ccc(Br)cc1 [Compound 4, 3-(4-bromophenyl)-1,1-bis{2-[3-(4-bromophenyl)thioureido]ethyl}thiourea]",26.7%,16.8 ± 1.9 µM,1.15,19.3 ± 3.5 µM,14.7 ± 1.5 µM,1.35,17.2 ± 1.9 µM,1.12,,"early apoptosis (HTB-140 cells): 28.6%; inhibition of interleukin release as compared to the control, in words [5]: tenfold"
"COc1ccc(NC(=S)N(CCNc2nnnn2-c2ccc(OC)cc2)CCNc2nnnn2-c2ccc(OC)cc2)cc1 [Compound 7, 3-(4-methoxyphenyl)-1,1-bis(2-{[1-(4-methoxyphenyl)-1H-tetrazol-5-yl]amino}ethyl)thiourea]",,> 100 µM,,> 100 µM,> 100 µM,,> 100 µM,,biologically inactive,
"S=C(NCCN(CCNC(=S)Nc1ccccc1)C(=S)Nc1ccccc1)Nc1ccccc1 [Compound 2, 3-phenyl-1,1-bis[2-(3-phenylthioureido)ethyl]thiourea]",,> 100 µM,,> 100 µM,> 100 µM,,> 100 µM,,biologically inactive,
"Fc1ccc(NC(=S)NCCN(CCNC(=S)Nc2ccc(F)c(Cl)c2)C(=S)Nc2ccc(F)c(Cl)c2)cc1Cl [Compound 5, 3-(3-chloro-4-fluorophenyl)-1,1-bis{2-[3-(3-chloro-4-fluorophenyl)thioureido]ethyl}thiourea]",42.7%,15.4 ± 2.1 µM,1.21,18.8 ± 4.3 µM,14.8 ± 3.2 µM,1.27,17.9 ± 2.8 µM,1.05,,late apoptosis (CaCo-2 cells): 32.8%
"COc1cccc2c1C(=O)c1c(O)c3c(c(O)c1C2=O)C[C@@](O)(C(=O)CO)C[C@@H]3O[C@H]1C[C@H](N)[C@H](O)[C@H](C)O1 [Doxorubicin, reference compound]",,0.63 ± 0.21 µM,1.73,1.09 ± 0.23 µM,0.47 ± 0.18 µM,2.32,0.53 ± 0.23 µM,2.06,,
"N.N.[Cl][Pt][Cl] [Cisplatin, reference compound]",,,,,,,,,,IC50 [2]: 1.95 ± 0.83 µM; IC50 [3]: 2.84 ± 1.06 µM; IC50 (HTB-140 cells (melanoma)): 1.13 ± 0.19 µM
"COc1ccc(NC(=S)NCCN(CCNC(=S)Nc2ccc(OC)cc2)C(=S)Nc2ccc(OC)cc2)cc1 [Compound 1, 3-(4-methoxyphenyl)-1,1-bis{2-[3-(4-methoxyphenyl)-thioureido]ethyl}thiourea]",,> 100 µM,,> 100 µM,> 100 µM,,> 100 µM,,biologically inactive,
